Activity calls are given as the source filed them.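 How the source made its calls: active means compounds giving half or more protection of infected cells from virus-caused growth loss, again on retest; inactive means the rest.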 A value given as a limit tells only on which side of the number the result lay.

This assay relates to CEM cells HIV-1 protection, formazan growth assay. The experiment in a line: NCI AIDS Antiviral Assay. As to conditions: for IC50: measured here: growth of uninfected CEM cells. An outline of the steps: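 Screen of anti-HIV-1 activity in human CEM cells using a formazan-based growth measurement at five drug concentrations. Hits with 50% or greater protection were repeated, and confirmation required reproducible complete protection.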

The term EC50 denotes the concentration giving half of the maximal effect. For orientation: IC50 means the concentration that gives 50% inhibition. With `O=C(Nn1cc(F)c(=O)[nH]c1=O)C12CC3CC(CC(C3)C1)C2`, the EC50 was over 200 µM and the IC50 stood at 8.91 µM. On the same counts, the results for `Cc1c(N=Nc2ccc(Cl)cc2)c(C)n(C2OC(CO)C(O)C(O)C2O)c(=S)c1C#N` (configuration not stated) are over 200 µM and 34.7 µM. On the same counts, the results for `COc1ccc(/C(=N/O)c2ccccc2-c2nc3ccccc3c(=O)n2Nc2ccc([N+](=O)[O-])cc2[N+](=O)[O-])cc1C` are over 200 µM and 43.7 µM. As to `Nc1ncnc2c1ncn2C1CC(OC2CCCCO2)C(CO)O1` (configuration not stated), the EC50 was over 200 µM and the IC50 is over 200 µM. On to `CC(NC(=O)C(OC(=O)C(C)NC(=O)OC(C)(C)C)C(C)C)C(=O)OC(C(=O)O)C(C)C` (configuration not stated), for which the EC50 was over 200 µM and the IC50 is over 200 µM. With `O=C(Nc1ccn(C2CC(I)C(COC(c3ccccc3)(c3ccccc3)c3ccccc3)O2)c(=O)n1)c1ccccc1` (configuration not stated), the EC50 is over 200 µM and the concentration for half-maximal inhibition (IC50) was 7.59 µM.

Turning to `O=C(NN1C(=O)C=CC1=O)c1ccccc1Nc1ccccc1C(=O)NN1C(=O)C=CC1=O`, the EC50 is 63.1 µM and the concentration for half-maximal inhibition (IC50) was 191 µM. For `O=C(OCc1ccccc1)C(Cc1ccc(OCc2ccccc2)cn1)NC(=O)C(F)(F)F` (configuration not stated), in that order: over 200 µM and 33.1 µM. For `O=C(O)c1cc(CNc2ccc(/C=C/c3ccc(NCc4ccc(O)c(C(=O)O)c4)cc3S(=O)(=O)O)c(S(=O)(=O)O)c2)ccc1O`, in that order: 102 µM and 263 µM.

For the compound `CCC1(Br)OC1=O` (configuration not stated), the EC50 is over 200 µM and the IC50 amounted to 107 µM. Consider `C=C1C2CC[C@@]3(CC[C@@H]4[C@@]5(C)CCC[C@@]4(CN4CCO[C@H]45)[C@@H]3C2)[C@@H]1O`, for which the outcome was inactive. Turning to `N#Cc1c(-c2ccccc2)c(-c2ccccc2)nn(CC(=O)O)c1=O`, the EC50 was over 759 µM and the half-inhibitory concentration (IC50) turned out to be 47.9 µM. In the case of `COc1cc(/C=N/N=C(\N)NO)cc(OC)c1OC`, the EC50 was over 200 µM and the IC50 worked out at 105 µM. Consider `C=Cc1c2[n-]c(c1C)/C=c1\[n-]/c(c(C)c1C=C)=C\c1[n-]c(c(CCC(=O)O)c1C)/C=c1\[n-]/c(c(C)c1CCC(=O)O)=C\2.[Fe+4]`, for which the EC50 was over 14.5 µM and the IC50 was over 14.5 µM.

With `COc1ccc(NC(=O)c2oc3cc(O)ccc3c(=O)c2C)c([N+](=O)[O-])c1`, the EC50 was over 676 µM and the half-inhibitory concentration (IC50) turned out to be 245 µM. For `O=C(NNC(=O)c1ccccc1SSc1ccccc1C(=O)NNC(=O)c1ccccc1S)c1ccccc1S`, in that order: 17.8 µM and 33.1 µM. Turning to `CN(N)P(=O)(c1ccccc1)N(C)N`, the EC50 is over 1150 µM and the IC50 was found to be 501 µM. On to `Brc1ccc2c(c1)C1C(CO2)C(c2ccccc2)=NN1c1ccccc1` (configuration not stated), for which the EC50 was over 64.6 µM and the IC50 was over 64.6 µM. Turning to `COC(=O)c1ccc2cc1Nc1c(C#N)cnc(=S)n1-2`, the EC50 is over 603 µM and the IC50 is 363 µM. On the same counts, the results for `Cc1nnc(CC#N)n1NC(=O)CC#N` are over 200 µM and over 200 µM. As for `CCOC(=O)/C=C1/Nc2cc(Cl)c(Cl)cc2NC1=O`, the EC50 is over 9.12 µM and the half-inhibitory concentration (IC50) was over 9.12 µM. As to `COC(=O)C1SC[C@H]2C(=O)N(c3ccccc3)C(=O)N12` (some centres not stated), the EC50 was over 200 µM and the IC50 was over 200 µM. Take `O=C1CCCCC1=O`: the outcome was inactive.

For the compound `COc1ccc(-c2oc3c(Cl)cc(Cl)cc3c(=O)c2O)cc1OC`, the EC50 is over 200 µM and the IC50 is over 200 µM. Take `O=C1CC(CC(O)C(O)C(O)CO)CC(=O)N1` (configuration not stated): the EC50 was over 200 µM and the IC50 is over 200 µM. On to `COC(=O)c1cc(C(=O)OC)c(C/C(=N/NC(N)=S)C(=O)Nc2c(C)cccc2C)nc1CC(=Nc1c(C)cccc1C)NNC(N)=S`, for which the EC50 was over 200 µM and the IC50 is over 200 µM. In the case of `COCCN1C(=O)C(NC(C)=O)C1COC(C)(C)C` (configuration not stated), the EC50 was over 912 µM and the IC50 is over 912 µM. Consider `Cc1ccccc1NC(=O)C(=O)C(C(=O)c1ccccc1F)C1OC(=O)c2ccccc21` (configuration not stated), for which the EC50 is over 302 µM and the IC50 turned out to be 51.3 µM. For `CC(=O)n1cc(CC(C)O)c(=O)[nH]c1=O` (configuration not stated), in that order: over 1170 µM and over 1170 µM. On the same counts, the results for `CC(C)CCCC(C)C1CCC2C3CCC(=O)C(C)(CCCNCCO)C3CCC12C` (configuration not stated) are over 20 µM and 2.88 µM. On the same counts, the results for `CC(=O)C1=C(C)Cn2c(=O)c3ccccc3c(=O)n2C1` are over 95.5 µM and over 95.5 µM.

Turning to `Cc1ccc(/C=C/C(=N/NC(=O)N/N=C(/C=C/c2ccc(C)cc2)C(C)(C)CN2CCCCC2)C(C)(C)CN2CCCCC2)cc1`, the EC50 is over 200 µM and the IC50 was 3.02 µM. On the same counts, the results for `Ic1ccc(SSc2ccc(I)cc2)cc1` are over 200 µM and 6.61 µM.

Turning to `O=C1C(Br)=C(C2=CC(=P(c3ccccc3)(c3ccccc3)c3ccccc3)C=C2)C(=O)C(Br)=C1C1=CC(=P(c2ccccc2)(c2ccccc2)c2ccccc2)C=C1`, the EC50 is over 50.1 µM and the IC50 was over 50.1 µM. Turning to `Cn1c(=O)[nH]c(=O)c2[nH]c(=O)c(=O)n(C)c21`, the EC50 is over 200 µM and the IC50 was over 200 µM. For `CC(C)(C)[Si](C)(C)OCC1OC(n2ccc(=O)[nH]c2=O)C(O[Si](C)(C)C(C)(C)C)/C1=C/C#N` (configuration not stated), the EC50 is over 200 µM and the IC50 was 8.13 µM. Regarding `CCOC(=O)C1CCCCc2sc(N)c(C#N)c21` (configuration not stated), the EC50 was over 200 µM and the IC50 stood at 191 µM. For `CC(=O)Nc1cccc(C(CC(=O)O)CC(=O)O)c1`, the EC50 was over 200 µM and the IC50 was over 200 µM. With `COc1ccc(S(=O)(=O)N/N=C/CN2C(=O)c3ccccc3C2=O)cc1OC`, the EC50 was over 64.6 µM and the IC50 was over 64.6 µM. `C=CC1CN2CCC1C/C2=N\O` (configuration not stated): the outcome was inactive.

As to `Cc1cccc(-c2nc(=S)[nH][nH]2)c1`, the EC50 is over 955 µM and the 50% inhibitory concentration (IC50) amounted to 417 µM. Turning to `COc1ccc2nc(N/N=C/C(C)=N/Nc3cc(C)c4cc(OC)ccc4n3)cc(C)c2c1`, the EC50 was over 100 µM and the IC50 turned out to be 14.5 µM.

Consider `CCOC1N=C(c2ccccc2)c2cc(Cl)ccc2NC1=O` (configuration not stated), for which the EC50 is over 22.9 µM and the IC50 is over 22.9 µM. Take `COC(=O)CC(=O)C[P+](c1ccccc1)(c1ccccc1)c1ccccc1`: the EC50 is over 550 µM and the IC50 was found to be 42.7 µM.

For `N#C/C(=C\c1ccc(F)cc1)c1nc(-c2cc3ccccc3oc2=O)cs1`, the outcome was inactive. Still for that read-out and setting: the value for `CCCCCCC1C=CCCN1` (configuration not stated) was “inactive”. On to `O=[N+]([O-])C(/C=C(\Cl)[N+](=O)[O-])=C(N1CCCCC1)N1CCCCC1`, for which the EC50 is over 200 µM and the IC50 was determined as 75.9 µM. For `N#CC1=C(N)OC(c2cccc([N+](=O)[O-])c2)C1(C#N)C#N` (configuration not stated), in that order: over 200 µM and 15.5 µM. For `COC(=O)C(CC(=O)Nc1ccc(Cl)c(Cl)c1)C(=O)C(=O)Nc1ccc(Cl)c(Cl)c1` (configuration not stated), in that order: over 52.5 µM and over 52.5 µM.

Consider `COc1ccc(/C=C/C(=O)N[C@@H]2CCN3CCCC23)cc1` (some centres not stated), for which the outcome was inactive. As for `O=S(=O)(O)c1cc(O)c2c(N=Nc3ccc(Nc4ccccc4)c4c(S(=O)(=O)O)cccc34)cc(S(=O)(=O)O)cc2c1`, the concentration giving a half-maximal response (EC50) was 112 µM and the half-inhibitory concentration (IC50) was over 200 µM. For `Cc1cccc(N2C(=O)C3c4[nH]c5ccc(C)cc5c4C4CCC(C(C)(C)C)CC4C3C2=O)c1` (configuration not stated), in that order: over 200 µM and 8.51 µM. Regarding `COC1OC2COC(C)(C)OC2C(OC(C)=O)C1NC(=O)N(CCCl)N=O` (configuration not stated), the EC50 was over 229 µM and the 50% inhibitory concentration (IC50) was over 229 µM. On to `CN=C1CN2OC(=O)N(C)C2(c2ccccc2)c2cc(Cl)ccc2N1` (configuration not stated), for which the EC50 is over 112 µM and the 50% inhibitory concentration (IC50) is 41.7 µM.

For `C=C1C(O)CC[C@]2(C)C1C1OC(C)(C)O[C@]13CC(=O)C(C)=C([C@H]1OC(C)(C)OC12)C3(C)C` (some centres not stated), the EC50 was over 200 µM and the concentration for half-maximal inhibition (IC50) was over 200 µM.

For the compound `NC(N)=NS(=O)(=O)c1ccc(Nc2c3ccccc3nc3c(C(=O)NNCCO)cccc23)cc1`, the EC50 is over 200 µM and the concentration for half-maximal inhibition (IC50) is 5.25 µM. For `COc1ccc(/C=N/NS(=O)(=O)c2ccc(/C=C3\NC(=O)NC3=O)cc2)cc1`, in that order: over 200 µM and over 200 µM.

Consider `COC(OC)[C@@H]1OC[C@@H](O)[C@@H]1n1cnc2c(N)ncnc21`, for which the EC50 is over 200 µM and the IC50 is over 200 µM. Take `Clc1ccc(CCn2ccc3ccccc32)c(Cl)c1`: the EC50 is over 200 µM and the IC50 is over 200 µM. As to `C/C(=N/NC(=S)Nc1ccc([N+](=O)[O-])cc1)c1cccc(/C(C)=N\NC(=S)Nc2ccc([N+](=O)[O-])cc2)n1`, the EC50 was over 200 µM and the IC50 was 0.479 µM. Regarding `C/C=C/CC(C)[C@@H](O)[C@H](NC)C(=O)O` (some centres not stated), the result was inactive. In the case of `NS(=O)(=O)c1nn2c(Br)c(-c3ccccc3)nc2s1`, the EC50 is over 200 µM and the half-inhibitory concentration (IC50) was 1.78 µM. Consider `O=S1c2ccccc2N=C(c2ccc3ccccc3c2)CC1c1ccccc1` (configuration not stated), for which the EC50 was over 19.1 µM and the IC50 is over 19.1 µM.

In the case of `COc1cc2cc[n+](C)c(Cc3ccc(Oc4cc(Cc5c6cc(OC)c(OC)cc6cc[n+]5C)ccc4OC)cc3)c2cc1OC`, the result was inactive. In the case of `COc1cc2c(cc1OC)C13CCN4CC5=CCOC6CC(=O)N2C1C6C5CC43` (configuration not stated) (tested in a mixture with another compound), the EC50 was over 200 µM and the IC50 stood at 53.7 µM. For `COc1ccc(NS(=O)c2ccc(OC)cc2)cc1` (configuration not stated), in that order: over 200 µM and 15.8 µM.

With `CC(C)CCCC(C)[C@H]1CCC2C3C/C(=C\C#N)[C@H]4CCCC[C@]4(C)C3CC[C@@]21C` (some centres not stated), the EC50 was over 100 µM and the IC50 is over 100 µM. As to `Cc1ccccc1-c1c(N)nc(NC#N)nc1C(=O)Nc1ccccc1`, the result was inactive.

These data come from PubChem BioAssay AID179 (DTP/NCI, 2004).
